{
  "source": "paper PMC9064246",
  "about": "(RSC Advances, 2019)",
  "biological_target": "T1, Lactobacillus reuteri 121 inulosucrase (LrInu; InuΔ699His) (Limosilactobacillus reuteri, UniProt Q8GP32)",
  "T1 sequence (Q8GP32 37-699 limits assumed)": "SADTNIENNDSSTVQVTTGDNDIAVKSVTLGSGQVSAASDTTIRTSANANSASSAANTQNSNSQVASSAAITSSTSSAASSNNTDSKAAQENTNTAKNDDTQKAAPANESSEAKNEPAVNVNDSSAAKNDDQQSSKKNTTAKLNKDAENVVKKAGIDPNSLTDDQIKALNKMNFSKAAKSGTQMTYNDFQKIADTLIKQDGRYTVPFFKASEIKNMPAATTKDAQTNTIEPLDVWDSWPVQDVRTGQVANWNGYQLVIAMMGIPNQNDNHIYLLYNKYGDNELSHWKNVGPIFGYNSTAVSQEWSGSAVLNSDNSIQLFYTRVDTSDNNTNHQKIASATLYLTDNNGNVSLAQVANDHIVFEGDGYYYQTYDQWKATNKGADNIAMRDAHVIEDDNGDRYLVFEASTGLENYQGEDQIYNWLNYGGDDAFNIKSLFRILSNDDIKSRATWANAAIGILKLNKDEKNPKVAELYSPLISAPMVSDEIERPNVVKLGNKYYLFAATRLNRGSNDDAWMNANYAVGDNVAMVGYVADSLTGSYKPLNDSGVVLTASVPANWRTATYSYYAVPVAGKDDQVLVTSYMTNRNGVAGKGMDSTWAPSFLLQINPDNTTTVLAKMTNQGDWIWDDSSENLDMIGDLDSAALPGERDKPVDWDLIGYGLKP",
  "assay": "FOS synthesis, TLC / HPLC / MALDI-TOF MS",
  "format": "biochemical",
  "details": "0.5 M sucrose, 5 U/mL enzyme, 50 mM acetate pH 5.5, 30 °C, 24 h",
  "data": [
    {"smiles": "OC[C@H]1O[C@@](CO)(O[C@H]2O[C@H](CO)[C@@H](O)[C@H](O)[C@H]2O)[C@@H](O)[C@@H]1O", "note": "[sucrose]", "values": [
      {"measurement": "FOS synthesis, TLC / HPLC / MALDI-TOF MS", "value": "transglycosylation products of R483A, R483F, R483Y and R483W"}
    ]}
  ]
}
